In patent publication US20020082249A1, “Prodrugs of aspartyle protease inhibitors” (priority 1997, published 2002):

Experiments:
[1] = Pharmacokinetics in Sprague-Dawley rats following single oral dose; conditions: for AUC: rats; for Cmax / half-life: both, Sprague-Dawley, rat, in vivo, po
[2] = Similar oral pharmacokinetic study on dogs (solid capsule and solution formulations); conditions: dog, in vivo, 17 mg/kg

Which “compound 229 detected in blood samples” value ([1]; after oral administration, first time point blood sample or later samples, suggests first pass metabolism to VX-478) does the source give for CC(C)CN(C[C@@H](OP(=O)(O)O)[C@H](Cc1ccccc1)NC(=O)O[C@H]1CCOC1)S(=O)(=O)c1ccc(N)cc1 [Compound 229] here?
The value was “none of that compound was detected”.

What about the “delivery of VX-478, aqueous dose of 229 versus VX-478 formulations” value ([1]; aqueous dose of compound 229 compared with the two non-aqueous formulations used for VX-478) of the same molecule?
Its value is “equivalence in delivery”.

What about the “bioavailability, aqueous solution versus other vehicles” value ([1]; oral administration of compound 229 as an aqueous solution, in comparison to the other vehicles studied) of the same molecule?
Its value is “improved bioavailability”.

And the AUC ([1]; compound 229 PO, 40 mg/Kg molar equiv. of VX-478, vehicle H2O:PG:EtOH 5:4:1)?
Its AUC is 10.6 ug*hr/m1.

And the AUC ([1]; compound 229 PO, 40 mg/Kg molar equiv. of VX-478, vehicle H2O, VX-478 measured in plasma)?
The AUC was 11.7 ug*hr/m1.

And the AUC ([1]; compound 229 PO, 40 mg/Kg molar equiv. of VX-478, vehicle PEG 400)?
Its AUC is 7.4 ug*hr/m1.

What about the AUC ([1]; compound 229 PO, 40 mg/Kg molar equiv. of VX-478, vehicle TPGS/PEG 400/PG) of the same molecule?
Its AUC is 8.2 ug*hr/m1.

With CC(C)CN(C[C@@H](O)[C@H](Cc1ccccc1)NC(=O)O[C@H]1CCOC1)S(=O)(=O)c1ccc(N)cc1 [VX-478] as the molecule, how does the Cmax ([1]; 41 mg/kg) read?
Its Cmax is 14 µM.

And the half-life ([1]; 41 mg/kg)?
Its half-life is 2.5 h.

And the Cmax ([1]; 50 mg/kg)?
The Cmax was 6 µM.

And the half-life ([1]; 50 mg/kg)?
Its half-life is 2.2 h.

What about the AUC ([1]; VX-478 41 mg/Kg PO, vehicle 33% TPGS/PEG 400/PG) of the same molecule?
The AUC was 29.6 ug*hr/m1.

What about the AUC ([1]; VX-478 50 mg/Kg PO, vehicle 12.5% TPGS/PEG 400/PG) of the same molecule?
The AUC was 16.2 ug*hr/m1.

What about the AUC [2] of the same molecule?
Its AUC is 23500 ± 7400 ng·h/mL.

And the Cmax [2]?
The Cmax was 6800 ± 1100 ng/mL.

And the Tmax [2]?
Its Tmax is 1 ± 0.8 h.
